For six compounds, Activity results are on record in ChEMBL document CHEMBL3046130, “Apteniols AF, oxyneolignans from the leaves of Aptenia cordifolia” (Tetrahedron, 2005).

The subject of series [1] is Lactuca sativa. Put plainly: Phytotoxicity against Lactuca sativa (lettuce) assessed as reduction of shoot elongation at 10^-7 M measured daily for 5 days relative to control. In kind it is functional, organism-based.
The test system of series [2] is Lactuca sativa. Kind of series: Phytotoxicity against Lactuca sativa (lettuce) assessed as reduction of seed germination at 10^-5 M measured daily for 5 days relative to control. Format: functional. More on the design: scale not given: the % may be the effect or the level left.
Series [3] has as its system Lactuca sativa. Kind of series: Phytotoxicity against Lactuca sativa (lettuce) assessed as reduction of root elongation at 10^-4 M measured daily for 5 days relative to control. In kind it is functional. More on the design: scale not given: the % may be the effect or the level left.
For series [4], the system named is Lactuca sativa. Put plainly: Phytotoxicity against Lactuca sativa (lettuce) assessed as reduction of seed germination measured daily for 5 days relative to control. In kind it is functional, organism-based.
The subject of series [5] is Lactuca sativa. Kind of series: Stimulation of root elongation in Lactuca sativa (lettuce) at 10^-7 M measured daily for 5 days relative to control. In kind it is […], organism-based. To be noted: in vivo, 120 h, 0.1 µM.

The source made the active and inactive calls. The rule behind the calls is not given here.

For the compound `O=C(O)CCc1ccc(Oc2ccc(CCC(=O)O)cc2)cc1` [APTENIOL A], the result in series [1] was inactive. The Activity is 25% in series [2], 40% in series [3] and “Dose-dependent effect” in series [4].
As for `COc1cc(CCC(=O)O)ccc1Oc1ccc(CCC(=O)O)cc1` [APTENIOL B], the Activity in series [2] is 25%; in series [5], 20%; in series [3] it was 20%; in series [4] it was “Dose-dependent effect”.
On to `COC(=O)CCc1ccc(Oc2ccc(CCC(=O)OC)cc2OC)cc1` [APTENIOL C], for which the outcome in series [1] and in series [3] was inactive. In addition, the Activity in series [2] was 25%; in series [4], “Dose-dependent effect”.
With `COc1cc(CCC(=O)O)ccc1Oc1c(OC)cc(CCC(=O)O)cc1OC` [APTENIOL D], the Activity is 25% in series [2], 20% in series [3] and “Dose-dependent effect” in series [4].
On to `COc1cc(CCC(=O)O)cc(OC)c1Oc1c(OC)cc(CCC(=O)O)cc1OC` [APTENIOL E], for which the Activity in series [2] was 25%; in series [5] it was 20%; in series [3], 20%; in series [4], “Dose-dependent effect”.
Regarding `COc1cc(CCC(=O)O)ccc1Oc1ccccc1CCC(=O)O` [APTENIOL F], in series [1], the outcome was inactive. For the same compound, the Activity in series [2] was 25%; in series [3] it was 20%; in series [4] it was “Dose-dependent effect”.
